# Results as given in ChEMBL document CHEMBL5724796, “Tm Shift (DSF) assay results for EUbOPEN Chemogenomics Library” (2024).
# Values joined by “and” are separate entries in the source; they are usually repeats but may differ in a detail not shown here. Equal entries are not always repeated. Non-standard residues stand in square brackets, D forms with d. Residues, ends and D or L forms follow the SMILES beside them. *: point of attachment. Benzoyl(4-tBu) = CC(C)(C)c1ccc(C(=O)*)cc1; Lys(Et2) = CCN(CC)CCCC[C@H](N)C(=O)O; Cbz = O=C(OCc1ccccc1)*; CH2F = FC*
# Legend:
# [1] = target: Fibroblast growth factor receptor 2 (Homo sapiens) (UniProt P21802); conditions: Compound concentration 20.0 uM
# Chain of Fibroblast growth factor receptor 2 (Homo sapiens) (P21802 22-821 limits assumed): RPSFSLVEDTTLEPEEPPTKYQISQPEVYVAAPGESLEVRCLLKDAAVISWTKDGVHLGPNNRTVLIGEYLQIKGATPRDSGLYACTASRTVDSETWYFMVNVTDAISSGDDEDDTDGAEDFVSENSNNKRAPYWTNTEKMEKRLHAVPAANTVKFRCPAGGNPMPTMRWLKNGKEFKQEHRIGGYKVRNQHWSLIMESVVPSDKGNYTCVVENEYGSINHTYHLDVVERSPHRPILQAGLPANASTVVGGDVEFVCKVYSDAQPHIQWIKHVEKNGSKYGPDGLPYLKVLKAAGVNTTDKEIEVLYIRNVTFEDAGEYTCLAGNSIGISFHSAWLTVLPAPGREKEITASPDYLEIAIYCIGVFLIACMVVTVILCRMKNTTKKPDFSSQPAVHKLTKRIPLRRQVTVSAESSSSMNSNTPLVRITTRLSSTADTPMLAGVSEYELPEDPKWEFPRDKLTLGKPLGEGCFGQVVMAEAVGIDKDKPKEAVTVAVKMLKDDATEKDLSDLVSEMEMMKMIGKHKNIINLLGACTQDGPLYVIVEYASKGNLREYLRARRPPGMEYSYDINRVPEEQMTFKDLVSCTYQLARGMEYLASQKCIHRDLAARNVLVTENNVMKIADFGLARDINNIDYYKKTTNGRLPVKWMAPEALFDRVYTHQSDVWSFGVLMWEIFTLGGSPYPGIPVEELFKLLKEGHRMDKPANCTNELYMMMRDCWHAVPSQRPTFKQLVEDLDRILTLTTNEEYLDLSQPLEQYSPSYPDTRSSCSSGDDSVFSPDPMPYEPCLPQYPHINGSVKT
# Description: Thermal Shift Assay. Domain: start/stop: T457-E768
# Peregrin (Homo sapiens) = target: T1, Peregrin (Homo sapiens) (UniProt P55201); conditions: Compound concentration 20.0 uM
# T1 sequence (whole entry): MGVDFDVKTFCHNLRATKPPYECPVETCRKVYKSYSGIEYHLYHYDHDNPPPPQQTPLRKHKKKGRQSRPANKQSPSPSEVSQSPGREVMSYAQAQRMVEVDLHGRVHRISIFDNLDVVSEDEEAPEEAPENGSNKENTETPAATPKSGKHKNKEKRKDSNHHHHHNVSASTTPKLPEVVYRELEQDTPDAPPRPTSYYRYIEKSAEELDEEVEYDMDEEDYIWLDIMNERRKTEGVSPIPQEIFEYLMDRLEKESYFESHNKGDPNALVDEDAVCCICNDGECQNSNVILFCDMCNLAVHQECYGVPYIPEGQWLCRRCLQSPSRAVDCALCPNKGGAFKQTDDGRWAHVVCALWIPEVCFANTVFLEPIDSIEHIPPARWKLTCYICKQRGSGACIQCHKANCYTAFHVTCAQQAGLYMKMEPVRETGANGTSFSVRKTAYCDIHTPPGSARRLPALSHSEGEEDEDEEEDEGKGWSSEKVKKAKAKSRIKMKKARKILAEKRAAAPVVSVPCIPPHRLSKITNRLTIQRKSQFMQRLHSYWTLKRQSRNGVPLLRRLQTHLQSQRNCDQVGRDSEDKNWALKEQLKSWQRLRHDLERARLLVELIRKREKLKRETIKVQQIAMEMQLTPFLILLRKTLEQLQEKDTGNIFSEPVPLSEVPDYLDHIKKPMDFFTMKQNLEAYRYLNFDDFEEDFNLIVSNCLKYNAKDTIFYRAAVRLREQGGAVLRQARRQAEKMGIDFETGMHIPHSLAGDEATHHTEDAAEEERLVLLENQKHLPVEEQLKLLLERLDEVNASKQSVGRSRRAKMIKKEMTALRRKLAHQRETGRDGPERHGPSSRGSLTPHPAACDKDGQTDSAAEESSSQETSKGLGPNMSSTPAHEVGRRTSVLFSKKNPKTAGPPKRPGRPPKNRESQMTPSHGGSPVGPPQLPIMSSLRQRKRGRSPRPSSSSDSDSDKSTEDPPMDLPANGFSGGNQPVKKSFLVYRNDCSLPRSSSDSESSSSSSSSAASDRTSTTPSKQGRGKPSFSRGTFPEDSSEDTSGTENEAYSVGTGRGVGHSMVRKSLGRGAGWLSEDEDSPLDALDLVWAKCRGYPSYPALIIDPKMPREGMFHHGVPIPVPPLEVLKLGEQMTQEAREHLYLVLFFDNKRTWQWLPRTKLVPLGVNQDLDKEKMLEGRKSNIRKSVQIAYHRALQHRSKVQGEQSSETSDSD
Compound,ΔTm [1],ΔTm (Peregrin (Homo sapiens))
CC(=O)O[C@]1(C(C)=O)CC[C@H]2[C@@H]3CCC4=CC(=O)CCC4=C3[C@@H](c3ccc(N(C)C)cc3)C[C@@]21C,-0.06 °C,-2.65 °C
CC[C@H](C)[C@H](NC(=O)[C@H](CCC(=O)O)NC(=O)[C@@H](NC(C)=O)C(C)C)C(=O)N[C@H](C=O)CC(=O)O (Ac-VEID-aldehyde),-0.3 °C,-1.43 °C
Cc1ccc2[nH]c(-n3nc(C)c(Cc4ccccc4)c3O)nc2c1,-0.11 °C,0.31 °C
Cc1[nH]c2c(N3CCCCC3)c(-c3ccccc3)nn2c(=O)c1-c1ccc(O)cc1,0.5 °C,-0.91 °C
CC(=O)N[C@H](C(=O)N[C@@H](CC(=O)O)C(=O)N[C@H](C(=O)N[C@@H](C)C(=O)N[C@H](C=O)CC(=O)O)C(C)C)C(C)C (Ac-VDVAD-aldehyde),-0.83 °C,-0.92 °C
COc1ccc2c(c1)OC(C)(C)C(c1ccccc1)C2c1ccc(OCCN2CCCC2)cc1 (configuration not stated),0.15 °C,-2.59 °C
Cc1ccc([N+](=O)[O-])cc1S(=O)(=O)N(C)C,-0.67 °C,2.57 °C
O=C(NCC1(c2nc(-c3ccccc3)cs2)CCOCC1)c1cccc(-c2noc(C(F)(F)F)n2)c1,-0.34 °C,-4.49 °C
C[C@@H](Oc1ccc(S(C)(=O)=O)cc1C(=O)N1C[C@@H]2C[C@]2(c2cc(C(F)(F)F)on2)C1)C(F)(F)F,-0.81 °C,0.16 °C
COc1ccc(-c2ccc(-c3cn(C(=O)N4CCCCC4c4ccccc4)nn3)cc2)cc1 (configuration not stated),0.03 °C,-1.62 °C
O=C1Nc2ccccc2C2(CCN(CC(Cc3ccccc3)Nc3nc4ccc(F)cc4s3)CC2)N1 (configuration not stated),2.21 °C,0.27 °C
CCN(CC)CCCC[C@H](NC(=O)[C@H](CC(C)C)NC(=O)[C@H](C)NC(=O)[C@H](Cc1ccccc1)NC(=O)c1ccc(C(C)(C)C)cc1)C(=O)N[C@@H](CO)C(=O)OC ({Benzoyl(4-tBu)}-FAL[Lys(Et2)]S-OMe),0.43 °C,-1.51 °C
COc1ccc(C(=O)N[C@H](C(=O)N2CCC[C@H]2C(=O)N[C@H](C(=O)C(F)(F)F)C(C)C)C(C)C)cc1,0.07 °C,0.8 °C
CC#CCn1c(N2CCC[C@@H](N)C2)nc2c1c(=O)n(Cc1nc(C)c3ccccc3n1)c(=O)n2C,0.28 °C,0.04 °C
COc1ccc(OC)c(-c2nnc3n2N=C(c2ccc(OC)c(OC)c2)CS3)c1,0.4 °C,0.8 °C
CCCC1O[C@@H]2C[C@H]3[C@@H]4CCC5=CC(=O)C=C[C@]5(C)[C@H]4[C@@H](O)C[C@]3(C)[C@]2(C(=O)CO)O1 (some centres not stated),-0.77 °C,-1.04 °C
CNCCC(Oc1ccccc1OC)c1ccccc1 (configuration not stated),0.13 °C,1.17 °C
CC(C)CCn1c(CN2CCN(C(=O)C3CC3)CC2)nc2c1c(=O)n(C)c(=O)n2C,-0.8 °C,1.75 °C
Cn1nc2c(=O)n(CC3(O)CCN(C(=O)C[C@H](c4ccccc4)C(F)(F)F)CC3)cnc2c1-c1ccc(CN)cc1,-0.7 °C,1.89 °C
Cc1cc(-n2cccc2)c(S(C)(=O)=O)cc1C(=O)N=C(N)N,-0.71 °C,2.16 °C
Cc1nc(N)c2nnn(C[C@H]3CN(Cc4nccs4)CCO3)c2n1,-0.39 °C,0.82 °C
CCn1c(=O)c(C)cn(Cc2nnc(-c3ccc(F)c(O)c3F)s2)c1=O,0.53 °C,-0.64 °C
FC(F)(F)Oc1ccc(Oc2ccnc(N3CCC(NC(=S)Nc4cccnc4)CC3)c2Cl)c(Cl)c1,-3.46 °C and 0.73 °C,0.92 °C and 3.5 °C
O=C(c1cc(Cc2n[nH]c(=O)c3ccccc23)ccc1F)N1CCn2nc(C(F)(F)F)nc2C1,-0.57 °C,0.87 °C
O=C(CCCCCCNC(=O)c1cnc(N(c2ccccc2)c2ccccc2)nc1)NO,-0.22 °C,-1.39 °C
CS(=O)(=O)Nc1ccc(-c2coc3cc(OCc4cccc(C(=O)O)c4)ccc3c2=O)cc1,-0.06 °C,1.08 °C

Compound,ΔTm [1],ΔTm (Peregrin (Homo sapiens))
CN1CCN2c3c(cccc31)[C@@H]1CN(CCCC(=O)c3ccc(F)cc3)CC[C@@H]12,-0.37 °C,-0.19 °C
C[C@@H](Nc1nc2c(cnn2C2CCCC2)c(=O)[nH]1)C(=O)N1CC[C@H](F)C1,-0.04 °C,-0.37 °C
O=[N+]([O-])c1c(Nc2cc(F)cc(Cl)c2)ccc2nonc12,-0.15 °C,0.04 °C
N#Cc1ccc(-c2c3n(c4cccnc24)CCN(C2CC2)C3=O)cc1F,-0.59 °C,-0.31 °C
CC(C)c1c(-c2cnn(C(C)(C)C)c2)[nH]c2c(C#N)cnn2c1=O,0.36 °C,0.8 °C
Cc1[nH]c2c(N3CCO[C@H](CO)C3)c(C#N)c(C(F)(F)F)nc2c1Cl,0.41 °C,1.11 °C
N=C(N)SCc1ccc(CN2C(=O)C(=O)c3cc(C(F)(F)F)ccc32)cc1,0.77 °C,0.27 °C
CC(C)c1cnc(CSc2cnc(NC(=O)C3CCNCC3)s2)o1,0.73 °C,-1.67 °C
CCCOc1ccc(CCc2nc3cc(-c4c(C)noc4C)ccc3n2CCN2CCOCC2)cc1,-0.48 °C,-1.09 °C
O=C(c1ccc2c(ccn2-c2ccc(F)cc2)c1)N1CC(N2CCN(C(=O)c3nccs3)CC2)C1,-0.43 °C,-2.53 °C
COc1cc2c(NC3CCN(C)CC3)cc(-c3ccc(C)o3)nc2cc1OCCCN1CCCC1,0.85 °C,-0.96 °C
OC[C@H]1O[C@@H](c2ccc(Cl)c(Cc3ccc(OCCOC4CC4)cc3)c2)[C@H](O)[C@@H](O)[C@@H]1O,-0.3 °C,0.43 °C
O=CC1CCCN1C(=O)C1CCCN1C(=O)OCc1ccccc1 (stereo not drawn) (Cbz-Pro-Pro-aldehyde; configuration not given here),0.49 °C,-0.94 °C
CS(=O)(=O)n1cc2c(n1)CN([C@H]1CO[C@H](c3cc(F)ccc3F)[C@@H](N)C1)C2,-0.38 °C,1.17 °C
Cc1ncsc1-c1ccc([C@H](C)NC(=O)[C@@H]2C[C@@H](O)CN2C(=O)[C@@H](NC(=O)CNC(=O)c2ccc(F)c(-c3ccc(N4C[C@@H](C)N(C)[C@@H](C)C4)c(NC(=O)c4c[nH]c(=O)cc4C(F)(F)F)c3)c2)C(C)(C)C)cc1,-4.38 °C,-0.15 °C
COC(=O)CC(NC(=O)C(C)NC(=O)C(NC(=O)C(CC(=O)OC)NC(=O)C(NC(=O)OCc1ccccc1)C(C)C)C(C)C)C(=O)CF (configuration not stated) (Cbz-VD(OMe)VAD(OMe)-CH2F; configuration not given here),-0.48 °C,2.28 °C
COc1ccccc1S(=O)(=O)Nc1ccc2c(c1)CN(C)C(=O)N2,-0.59 °C,1.9 °C
N[C@H]1CC[C@H](N[C@@H]2C[C@H]2c2ccccc2)CC1,0.55 °C,1.23 °C
Cn1ncc2c(-c3c(-c4ccc(F)cn4)nn4c3COC(C)(C)C4)ccnc21,1.01 °C,-1.06 °C
CN1C(=O)c2c(nn(Cc3ccc(-c4cccc(F)n4)cc3)c2Nc2ccccc2)N2C1=N[C@@H]1CCC[C@@H]12,-0.21 °C,-0.45 °C
Cc1nc(Nc2ncc(C(=O)Nc3c(C)cccc3Cl)s2)cc(N2CCN(CCO)CC2)n1,4.7 °C,-0.2 °C
O=C(O)/C(S)=C/c1ccc(I)cc1,-1 °C,-1.4 °C
CN(Cc1cc(Br)cc(Br)c1N)C1CCCCC1,-0.25 °C,1.45 °C
COc1cc(C)[nH]c(=O)c1CNC(=O)c1c(C)n([C@H](C)C2CCN(CC(F)(F)F)CC2)c2ccccc12,0.91 °C,-1.59 °C
N#Cc1ccc([C@H]2CCCC[C@H]2O)cc1C(F)(F)F,-0.09 °C,-0.66 °C
